# Results as given in US20140024663A1, “ATB(0,+) AMINO ACID TRANSPORTER AS A DRUG TARGET FOR TREATMENT OF ESTROGEN RECEPTOR-POSITIVE BREAST CANCER” (GEORGIA HEALTH SCIENCES UNIVERSITY RESEARCH INSTITUTE, INC., priority 2012, published 2014).
# Key:
# [1] = Measurement of α-MT in mouse plasma by HPLC; type: in vivo, Balb/c nude mice; conditions: mice, two weeks of administration in drinking water (2 mg/ml)
# Protocol: (§1) FIGS. 10A to 10D. In vivo efficacy of α-MT in the treatment of ER-positive breast cancer. ZR75.1 (FIG. 10A), MCF7 (FIG. 10B), and MB-231 (FIG. 10C) cells were injected subcutaneously (sc) into Balb/c nude mice (10×10^6 cells per injection site). For MCF7 cells, slow-releasing estrogen pellets were implanted to support the tumor growth. For each cell line, the control group received water with sucrose and the treatment group received α-MT (2 mg/ml) in water with sucrose. Tumor size was measured periodically. NS, not statistically significant (p>0.05); *, p<0.005; two-tailed unpaired Student's t test. In FIG. 10D, Balb/c nude mice were divided into two groups; the control group received water with sucrose and the treatment group received α-MT (2 mg/ml) in water with sucrose for 2 weeks. Mice were then bled and α-MT in plasma was determined by HPLC.
# Measurement of α-MT in mouse plasma. Balb/c nude mice were divided into two groups; the control group received water with sucrose and the treatment group received α-MT (2 mg/ml) in water with sucrose for 2 weeks. Mice were then bled and α-MT in plasma was determined by HPLC as described by Laich et al (Laich et al., 2002, Clin Chem; 48:579-581).
# MCF7 cells [2] = test: Xenograft in nude mice with estrogen pellets, tumor growth; type: in vivo, Balb/c nude mice; conditions: MCF7 (ER-positive) in the presence of estrogen administration, α-MT in drinking water 2 mg/ml
# Protocol: as §1, with “HPLC. Xenograft in nude mice. Human breast cancer cells (ZR75.1, MCF7, and MB231) were injected s.c. close to the lower mammary gland on the right side of Balb/c nude mice (10×10^6 cells per injection site). Only for MCF7 cells, slow-releasing estrogen pellets were implanted to support the tumor growth. Implantation of estrogen pellets was done as follows. […] Tumor size in control and treatment groups was measured periodically by caliper and […] was calculated using the formula (width^2×length)/2.” for “HPLC.”
# MCF7 cells [3] = test: Apoptotic cell death by annexin V labeling; type: cell-based, human; conditions: MCF7, single agent (α-MT 2.5 mM or 3-MA 10 mM), 48 h
# Protocol: FIGS. 9A to 9D. Influence of α-MT on mTOR activity In FIG. 9A, MCF7 and MB231 cells were treated without or with α-MT (2.5 mM) for 24 h, 48 h, or 72 h, and then the cell lysates were used for western blot. Influence of α-MT with or without 3-MA on cell death. In FIG. 9B, MCF7, MB231, and MCF10A cells were treated for 48 h without or with α-MT (2.5 mM), 3-MA (10 mM), or α-MT (2.5 mM) plus 3-MA (10 mM), and then analyzed for cell death by propidium iodide (PI) staining and FACS-based cell cycle analysis. In FIG. 9C, MCF7 cells were treated for 48 h without or with α-MT (2.5 mM), 3-MA (10 mM), or α-MT (2.5 mM) plus 3-MA (10 mM), and then analyzed for apoptotic cell death by annexin V labeling. In FIG. 9D, MCF7 and MB231 cells were treated without or with 2.5 mM α-MT for 24 h, 48 h, or 72 h. Cell lysates were then used for western blot analysis of lamin A degradation product using an antibody that recognizes specifically the proteolytic cleavage product. β-Actin was used as an internal control.
# Apoptosis assay. Fluorescence-activated cell sorting (FACS) was used to monitor cell death. MCF7 cells were treated with or without α-MT, 3-MA, or α-MT plus 3-MA. Control and treated cells were then fixed in 50% ethanol, treated with 0.1% sodium citrate, 1 mg/ml RNase A, and 50 μg/ml propidium iodide, and then subjected to FACS analysis (FACS Caliber, Becton Dickinson). FITC-labeled annexin V was used to differentiate apoptotic cell death from necrotic cell death.
smiles,measurement,setting,value
"CC(N)(Cc1c[nH]c2ccccc12)C(=O)O (racemic) [α-MT, α-methyl-DL-tryptophan]",plasma concentration of α-MT,[1],8.5 ± 0.5 µM
same,tumor growth in xenograft,MCF7 cells [2],did not affect the growth
same,apoptotic cell death by annexin V labeling,MCF7 cells [3],induced apoptotic cell death
